Assay results taken from EP2848693A1, “Concatenation of halogenated alkenyl diphosphate derivatives” (LANXESS Deutschland GmbH, priority 2013, dated 2015).

Key:
Type in all cases: biochemical
[1] = target: T1, E. coli Undecaprenyldiphosphatsynthase (EcUPPS) (Escherichia coli, UniProt P60472); assay: MTP phosphate detection assay (diphosphate release, BIOMOL Green), substrate kinetics; settings: elongation substrate varied, starter FPP 10 µM
T1 construct: made in house; host or cells: E. coli
T1 sequence (P60472 1-253): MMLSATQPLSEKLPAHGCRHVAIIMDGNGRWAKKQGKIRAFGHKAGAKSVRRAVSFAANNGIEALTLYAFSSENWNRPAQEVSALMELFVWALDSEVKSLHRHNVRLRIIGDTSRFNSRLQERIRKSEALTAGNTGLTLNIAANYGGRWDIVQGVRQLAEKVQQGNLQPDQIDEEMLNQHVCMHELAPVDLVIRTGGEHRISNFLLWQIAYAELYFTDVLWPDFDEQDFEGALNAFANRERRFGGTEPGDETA
Procedure: (§1) Cis-Prenyltransferasen entlassen während der Reaktion Diphosphat nach jedem Kondensationsschritt. Dies ist der Ansatzpunkt, der gewählt wurde, um unabhängig von der Art des Produktes den Grundumsatz zu detektieren. […] Die Dreifachbestimmungen der Enzymreaktionen wurden mit 100 µL BIOMOL Green™ Detektionsreagenz gestoppt und nach weiteren 20 min in einem Mikrotiterplattenspektrophotometer bei 620 nm gemessen. Zur Kontrolle erfolgte für jede Substratkonzentration eine Messung mit denaturiertem Enzym zu den unterschiedlichen Zeitpunkten um Selbsthydrolyse der Substrate zu berücksichtigen. Zur Quantifizierung wurde eine Pi-Standardkurve in Doppelbestimmung mitgeführt. Die Verdünnung des KPi-Standards erfolgte in Assaypuffer, wurde mit 100 µL BIOMOL Green™ Detektionsreagenz nach Ablauf der Enzymreaktion in den Test-Wells detektiert und zeitgleich nach weiteren 20 min bei 620 nm gemessen. Eine lineare Beziehung zwischen A620 nm und Pi-Konzentration ermöglichte eine Quantifizierung zwischen 80 µM-0 µM Pi.
(§2) Die Bestimmung der FPP-Kinetiken der EcUPPS sowie der ThkCPT erfolgte unter analogen Bedingungen der Bestimmung von IPP. […] Die Enzymreaktion wurde nach 60 s, 120 s, 180 s, 300 s, 600 s, 900 s oder 1200 s durch Zugabe von 100 µL BIOMOL Green™ Detektionsreagenz gestoppt und wie oben beschrieben gemessen.
(§3) Die Assaybedingungen wurden wie in Beispiel 3 beschriebenen gewählt. […] Variation von 500 - 0 µM im Fall der Elongationssubstrate erfolgte konstant mit 10 µM FPP (jedes Homoallyldiphosphat möglich).
(§4) Zur Berechnung der Umsatzraten in nkat·mg^-1 wurde verwendet: ν0 = ((A620-ABlank)⋅1000)/(2⋅m⋅t⋅[E]) [formula] v0 Anfangsgeschwindigkeit der Diphosphathydrolyse (nkat·mg^-1) A620 Absorption bei 620 nm ABlank Absorption der Kontrolle bei 620 nm m Anstieg der Phosphatstandardkurve (µM^-1) t Dauer der Enzymreaktion (s) [E] Enzymkonzentration (mg·L^-1)
(§5) Die Auswertung erfolgte durch nicht-lineare Regression nach der Hill-Gleichung mit Sigma-Plot 11. […] Substratkonzentration (µM) h Hill-Koeffizient

[2] = target: T2, Thermococcus kodakaraensis cis-Prenyltransferase (ThkCPT) (Thermococcus kodakarensis, UniProt Q5JGE1); assay: as above; settings: elongation substrate varied, starter FPP 10 µM, room temperature
T2 construct: made in house; host or cells: E. coli
T2 sequence (Q5JGE1 1-264): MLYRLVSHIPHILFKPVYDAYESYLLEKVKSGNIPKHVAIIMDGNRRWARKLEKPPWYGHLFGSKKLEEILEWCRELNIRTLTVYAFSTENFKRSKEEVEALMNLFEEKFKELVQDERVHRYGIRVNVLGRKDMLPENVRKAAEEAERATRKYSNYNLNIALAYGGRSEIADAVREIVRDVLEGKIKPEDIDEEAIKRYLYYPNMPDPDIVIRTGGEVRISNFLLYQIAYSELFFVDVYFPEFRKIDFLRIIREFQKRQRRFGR
Procedure: as §1, §2, §3, §4, §5

EcUPPS = target: T3, EcUPPS (Escherichia coli, UniProt P60472); assay: Prenyltransferase activity test, conversion of FPP with elongation substrate (MTP phosphate detection assay); settings: 5 µM E,E-FPP, 200 µM elongation substrate, 50 µM enzyme, room temperature
T3 construct: made in house; host or cells: E. coli
Procedure: (§6) Die Aktivität der Prenyltransferasen wurde hinsichtlich der Umsetzung von Farnesyldiphosphat (FPP) als Startersubstrat und Isopentenyldiphosphat (IPP), und Cl-BPP bzw. Br-BPP mit Hilfe des MTP-Phosphatdetektionsassays bestimmt.
(§7) Cl-BPP und jeweils 50 µM Enzym bei Raumtemperatur durchgeführt. […] Cl-BPP gezeigt werden. Als Negativkontrolle diente ein Ansatz ohne Enzym (nicht gezeigt).

HpUPPS = target: T4, HpUPPS (Helicobacter pylori, UniProt P55984); assay: as above; settings: 5 µM E,E-FPP, 200 µM elongation substrate, 50 µM enzyme, room temperature
T4 construct: poly-Histidin-Tag (His6) (N); made in house; host or cells: E. coli BL21 (DE3)
T4 sequence (P55984 whole entry): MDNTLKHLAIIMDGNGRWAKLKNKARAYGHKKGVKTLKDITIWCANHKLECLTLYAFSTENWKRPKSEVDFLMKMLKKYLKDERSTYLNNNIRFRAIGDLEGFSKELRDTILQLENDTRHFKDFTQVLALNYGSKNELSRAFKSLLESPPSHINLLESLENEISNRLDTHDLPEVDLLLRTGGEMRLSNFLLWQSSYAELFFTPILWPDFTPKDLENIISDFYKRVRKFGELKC
Procedure: as §6, §7

MIUPPS = target: T5, MIUPPS (Micrococcus luteus, UniProt O82827); assay: as above; settings: 5 µM E,E-FPP, 200 µM elongation substrate, 50 µM enzyme, room temperature
T5 construct: poly-Histidin-Tag (His6) (N); made in house; host or cells: E. coli BL21 (DE3)
T5 sequence (O82827 1-249): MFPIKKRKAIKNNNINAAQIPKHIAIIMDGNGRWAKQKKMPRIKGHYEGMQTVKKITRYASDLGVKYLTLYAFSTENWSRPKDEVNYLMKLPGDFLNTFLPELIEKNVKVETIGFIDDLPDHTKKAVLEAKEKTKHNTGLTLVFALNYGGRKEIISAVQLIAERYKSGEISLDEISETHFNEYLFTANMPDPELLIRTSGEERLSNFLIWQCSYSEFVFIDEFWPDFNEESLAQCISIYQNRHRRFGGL
Procedure: as §6, §7

MtUPPS = target: T6, MtUPPS (Mycobacterium tuberculosis, UniProt P9WFF7); assay: as above; settings: 5 µM E,E-FPP, 200 µM elongation substrate, 50 µM enzyme, room temperature
T6 construct: poly-Histidin-Tag (His6) (N); made in house; host or cells: E. coli BL21 (DE3)
T6 sequence (P9WFF7 whole entry): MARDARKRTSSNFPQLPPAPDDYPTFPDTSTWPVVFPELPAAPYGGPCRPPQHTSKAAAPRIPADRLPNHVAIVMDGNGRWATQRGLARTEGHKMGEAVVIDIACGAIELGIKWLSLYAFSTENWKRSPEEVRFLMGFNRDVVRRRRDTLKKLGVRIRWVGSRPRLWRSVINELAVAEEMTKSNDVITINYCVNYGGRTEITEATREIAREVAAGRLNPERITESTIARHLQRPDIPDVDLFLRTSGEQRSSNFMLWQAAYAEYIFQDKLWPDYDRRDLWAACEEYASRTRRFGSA
Procedure: as §6, §7

Compound: C=C(Cl)CCOP(=O)(O)OP(=O)(O)O [Cl-BPP, 3-Chlor-3-Butenyldiphosphat]
- kcat [1]: 0,0009 s^-1
- kcat [2]: 0,0005 s^-1
- Aktivität (Umsetzung von FPP mit Elongationssubstrat) (EcUPPS): höchste Aktivität
- Aktivität (Umsetzung von FPP mit Elongationssubstrat) (HpUPPS): im geringeren Maße
- Aktivität (Umsetzung von FPP mit Elongationssubstrat) (MIUPPS): im geringeren Maße
- Aktivität (Umsetzung von FPP mit Elongationssubstrat) (MtUPPS): höchste Aktivität
